Entries after “also recorded” stand apart in the source; their conditions may differ. Read-outs that look alike come from different tables or passages of the source.
What was measured:
[1] = conventional treatments of the same patients before NAC (case histories); format: in vivo, human; details: for response of effusion, tube plugging and otorrhea to conventional treatment: patient one (Example 4), 2002-2005, topical or oral
[2] = as above; format: in vivo, human
Text: They developed vertigo and bilateral otalgia in 1997, and presented to our practice. Given their prior history, they underwent an extensive workup from the outset. […] They underwent right-sided T tube placement for chronic Eustachian tube dysfunction in October 1997, with marked improvement of their pressure and fullness. However, they developed intermittent otorrhea, for which they received topical Tobradex. In November, the tube plugged completely, and they underwent tube replacement. Findings were notable for thick mucus filling the middle ear space. […] They underwent a right sided mastoidectomy with tube exchange in December 1997, with intraoperative findings notable for an inflamed mastoid cavity with several areas of cholesterol granuloma, as well as complete aditus blockade.
They continued to have thick, “taupe”-colored otorrhea after surgery. Considering their failure to respond to therapy, the differential was widened. Their evaluations for immunodeficiency and autoimmune pathology were negative. They underwent multiple TT placements and exchanges, as well as a negative culture and a wide laser tympanotomy in June 1998. The tympanotomy afforded them a brief hiatus from drainage from July through August. […] They also required office debridements every week or alternate week until they underwent a revision tympanomastoidectomy in October 1998. Intraoperative findings were notable for a clear mastoid, but a middle ear full of thick mucopurulence and edematous mucosa. The KTP laser was used to widen the tympanotomy and to ablate the middle ear mucosa to the Eustachian tube. Intraoperative cultures returned negative. Their course improved considerably, with only mild intermittent infections through July 1999. However, they were then diagnosed with breast cancer, which was treated with a modified radical mastectomy and adjuvant chemoradiation.
As they were completing their chemotherapy, they redeveloped the same otorrhea, which was treated with continuous, suppressive Floxin drops as well as frequent office debridements. They developed a mastoid abscess in March 2000, for which they underwent a repeat revision mastoidectomy. Preoperative CT imaging raised the concern for osteomyelitis. Intraoperative findings were notable for purulence in the mastoid and subcutaneous tissues, which were debrided widely. Intraoperative cultures returned penicillin-resistant, but otherwise pan-sensitive Staphylococcus aureus. Their otorrhea resumed in April after a brief hiatus. […] They continued to require office debridements on alternate weeks.
They had brief episodes of otorrhea in November 2001, and February and May 2002, which were treated easily with ototopicals.
Their otorrhea restarted in February 2003. They were begun on alternating courses of topical ciprofloxacin and Tobradex, oral azithromycin and metronidazole, as well as office debridements every week or alternating week. […] An infectious disease consultation was obtained, and they were started on high dose Septra per recommendations. […] A followup culture in October was negative.
Given their continued otorrhea, they underwent a revision modified radical tympanomastoidectomy in November 2004, with intraoperative findings notable for a large cholesterol granuloma extending from the mastoid tip to the retrosigmoid region towards the occiput. They had frank purulence in the epi-, pro-, and hypotympanum. The middle ear was packed with Zyvox-soaked Gelfoam. […] After a brief respite, their otorrhea restarted the following month. […] Multiple cultures returned negative except for occasional colonies of Candida albicans.
patient four is a diabetic with a history of frequent ear infections as a child. They developed ear plugging in May 2004, and was treated with oral antibiotics for otitis media. […] However, they developed chronic otorrhea after tube placement, which persisted despite multiple courses of oral and topical antibiotics. The TT was removed in September, after which they developed a chronic serous effusion. […]

[3] = off-label treatment of patients with Ciprodex augmented with 2% NAC (case reports); format: in vivo, human; details: patient two (Example 1), oral, for presumed fungal superinfection
Text: These patients responded uniformly to the compositions of the present invention. All treated ears ceased to drain within 1-2 weeks of adequate treatment. No ototoxicity was documented by either patient report or audiometry.
Given their multiple treatment failures, they were started at this point on Ciprodex augmented with 2% NAC. Verbal informed consent was obtained prior to starting treatment, and they were continued on oral Zyvox. […] They were given a fresh mixture of NAC with Ciprodex, and their otorrhea and middle ear fluid resolved one week later. […] They have been refrigerating the medication between uses, and hand warming the solution before application.
In November 2005, SG underwent a two week course of topical Ciprodex augmented with 2% NAC. Verbal informed consent was obtained prior to starting treatment.
At this point, BT was started on a two week course of topical Ciprodex augmented with 2% NAC. Verbal informed consent was obtained prior to starting treatment.
In November 2005, DL was started on a two week course of topical Ciprodex augmented with 2% NAC. Verbal informed consent was obtained prior to starting treatment. […] The same solution was insufflated into the ear after an aggressive debridement, and they were started on another two week course. The patient traveled abroad for one month, and returned in January 2006. […]

Escherichia coli = details: concentrations of 0.003% to 0.8%; cited from earlier work
[4] = test system: Staphylococcus epidermidis; details: concentrations of 0.003% to 0.8%; cited from earlier work
[5] = test system: cochlear outer hair cell (OHC); details: multiple studies; cited from earlier work
Moraxella catarrhalis = details: concentrations of 0.003% to 0.8%; cited from earlier work
Klebsiella pneumoniae = details: concentrations of 0.003% to 0.8%; cited from earlier work
[6] = applied topically to children at a concentration of 2%; cited from earlier work
Streptococcus pneumoniae = details: concentrations of 0.003% to 0.8%; cited from earlier work
Bacillus species = details: concentrations of 0.003% to 0.8%; cited from earlier work
Haemophilus influenzae = details: concentrations of 0.003% to 0.8%; cited from earlier work
[7] = high first pass metabolism through the liver; cited from earlier work
[8] = topical NAC, rabbit model of otitis media; cited from earlier work
polymicrobial cultures = details: concentrations of 0.003% to 0.8%; cited from earlier work
Pseudomonas cultures = details: cited from earlier work
[9] = test system: cochlear outer hair cell (OHC); details: co-administration with NAC at 0.017%; cited from earlier work
[10] = administered via transtympanic iontopheresis; cited from earlier work
[11] = NAC at a concentration of 0.1%; cited from earlier work
[12] = topical NAC, rat model of otitis media; cited from earlier work
[13] = patient two (Example 1), 1997-2005, topical or oral as stated

CC1COc2c(N3CCN(C)CC3)c(F)cc3c(=O)c(C(=O)O)cn1c23 (racemic) [Floxin, (±)-9-fluoro-2,3-dihydro-3-methyl-10-(4-methyl-1-piperazinyl)-7-oxo-7H-pyrido[1,3,3-de]-1,4-benzoxazine-6-carboxylic acid]
response of effusion, tube plugging and otorrhea to conventional treatment [1]: continued essentially unchanged

CC[C@H]1OC(=O)[C@H](C)[C@@H](O[C@H]2C[C@@](C)(OC)[C@@H](O)[C@H](C)O2)[C@H](C)[C@@H](O[C@@H]2O[C@H](C)C[C@H](N(C)C)[C@H]2O)[C@](C)(OC)C[C@@H](C)C(=O)[C@H](C)[C@@H](O)[C@]1(C)O [Biaxin, 6-O-methylerythromycin]
response of otorrhea to conventional treatment [2, 13]: failed to respond

Cc1ncc([N+](=O)[O-])n1CCO [Flagyl, 2-Methyl-5-nitro-imidazole-1-ethanol]
response of otorrhea to conventional treatment ([2]; patient four (Example 2), 2004-2005, topical or oral as stated): otorrhea persisted
response of otorrhea to conventional treatment [2, 13]: symptoms continued essentially unabated

CN(C/C=C/C#CC(C)(C)C)Cc1cccc2ccccc12.Cl [Lamisil, (E)-N-(6,6-dimethyl-2-hepten-4-ynyl)-N-methyl-1-naphthalenemethanamine hydrochloride]
tolerability [3]: could tolerate only three days of treatment secondary to gastrointestinal side effects

CC(=O)N[C@@H](CS)C(=O)O [NAC, N-acetylcysteine]
adherence of Escherichia coli to polystyrene (Escherichia coli): reduces the adherence
adherence of Staphylococcus epidermidis to polystyrene [4]: reduces the adherence
protection against oxidative OHC damage from cisplatin or aminoglycosides [5]: protect against oxidative OHC damage
adherence of Moraxella catarrhalis to human pharyngeal cells (Moraxella catarrhalis): reduces the adherence
adherence of Klebsiella pneumoniae to polystyrene (Klebsiella pneumoniae): reduces the adherence
TT reinsertion, recurrence of otitis media, need for physician visits [6]: decreases
tympanostomy tube (TT) longevity [6]: increases
adherence of Streptococcus pneumoniae to human oropharyngeal cells (Streptococcus pneumoniae): reduces the adherence
adherence of Bacillus species to stainless steel (Bacillus species): reduces the adherence
adherence of Haemophilus influenzae to mucus and human oropharyngeal cells (Haemophilus influenzae): reduces the adherence
oral bioavailability [7]: 5-10%
fibroblast proliferation, collagen synthesis, and inflammatory markers [8]: Marked reductions
tympanic membrane scarring [8]: effectively reduced this scarring
adherence of polymicrobial cultures to stainless steel and tracheoesophageal puncture prostheses (polymicrobial cultures): reduces the adherence
killing of Pseudomonas cultures (Pseudomonas cultures; NAC administered alone, concentration of only 0.002%): 95%
decrease of the efficacy of aminoglycoside antibiotics (Pseudomonas cultures; combination with aminoglycoside antibiotics): 2-16 fold
interaction with ticarcillin and carbenicillin (Pseudomonas cultures; combination with ticarcillin and carbenicillin): strong synergy
hydrogen peroxide-mediated damage to OHCs [9]: completely prevented
clearance of thick middle ear effusions [10]: may speed the clearance
viscosity reductions [11]: 21-39%
fibroblast proliferation, collagen synthesis, and inflammatory markers [12]: Marked reductions
tympanic membrane scarring [12]: effectively reduced this scarring

CN[C@@H](C)[C@@H](O)c1ccccc1 [Sudafed]
response of effusion, tube plugging and otorrhea to conventional treatment [1]: effusion and plugging continued

CC[C@H]1OC(=O)[C@H](C)[C@@H](O[C@H]2C[C@@](C)(OC)[C@@H](O)[C@H](C)O2)[C@H](C)[C@@H](O[C@@H]2O[C@H](C)C[C@H](N(C)C)[C@H]2O)[C@](C)(O)C[C@@H](C)CN(C)[C@H](C)[C@@H](O)[C@]1(C)O [azithromycin]
response of effusion, tube plugging and otorrhea to conventional treatment [1]: effusion and plugging continued; also recorded: continued essentially unchanged
response of otorrhea to conventional treatment [2, 13]: symptoms continued essentially unabated

O=C(N[C@H](CO)[C@H](O)c1ccc([N+](=O)[O-])cc1)C(Cl)Cl [chloramphenicol]
response of otorrhea to conventional treatment [2, 13]: failed to respond

O=C(O)c1cn(C2CC2)c2cc(N3CCNCC3)c(F)cc2c1=O [ciprofloxacin drops, 1-cyclopropyl-6-fluoro-1,4-dihydro-4-oxo-7-(1-piperazinyl)-3-quinolinecarboxylic acid]
response of effusion, tube plugging and otorrhea to conventional treatment [1]: effusion and plugging continued; also recorded: tube plugging and otorrhea continued
response of otorrhea/effusion to conventional treatment ([1]; patient three (Example 3), 2005, topical or oral as stated): developed recurrent otorrhea on the right side
response of otorrhea to conventional treatment [2, 13]: continued to drain through December; also recorded: failed to respond; also recorded: otorrhea resolved
response of otorrhea to conventional treatment ([2]; patient two (Example 1), 1997-2005, topical or oral as stated, listed as ciprofloxacin): symptoms continued essentially unabated

CN[C@H](CC(C)C)C(=O)N[C@H]1C(=O)N[C@@H](CC(N)=O)C(=O)N[C@H]2C(=O)N[C@H]3C(=O)N[C@H](C(=O)N[C@H](C(=O)O)c4cc(O)cc(O)c4-c4cc3ccc4O)[C@H](O)c3ccc(c(Cl)c3)Oc3cc2cc(c3O[C@@H]2O[C@H](CO)[C@@H](O)[C@H](O)[C@H]2O[C@H]2C[C@](C)(N)[C@H](O)[C@H](C)O2)Oc2ccc(cc2Cl)[C@H]1O [vancomycin]
response of otorrhea to conventional treatment [2, 13]: some improvement

— patent US20080139545A1, “FORMULATION TO TREAT EAR INFECTION” (priority 2006, published 2008)
